# From patent US5543312A, “Pastuerella haemolytica glycoprotease gene and the purified enzyme” (priority 1991, dated 1996)
# Experiments:
# [1] = molecular target: P. haemolytica A1 protease (Mannheimia haemolytica, UniProt P36175); format: biochemical; settings: SDS-PAGE and Coomassie blue staining
# [2] = molecular target: P. haemolytica A1 glycoprotease (Mannheimia haemolytica, UniProt P36175); assay: biochemical; settings: for Restoration of protease activity by addition of divalent metal ion: after EDTA treatment and dialysis of the enzyme; for Increase of activity by addition of divalent metal ion: native enzyme; for Inhibition of the glycoprotease by anions and acidic amino acids: millimolar concentrations
# [3] = test system: P. haemolytica glycoprotease; assay: Cleavage of cell surface antigens of surface-125I-iodinated KG1a cells, immunoprecipitation and SDS-PAGE; format: cell-based
# Text: In our previous work, we have concentrated on the cleavage of human erythrocyte glycophorin A by the P. haemolytica glycoprotease Udoh et al. 1986. Univ. of Guelph; Abdullah et al. 1988. Proc. Canad. Fed. Biol. Socs.; Abdullah et al. 1990. Biochem. Soc. Trans. This substrate is well-characterized erythrocyte surface O-sialoglycoprotein and is readily available for biochemical analysis. However, it is clear that the physiological targets of this enzyme are not erthrocyte antigens but are probably O-sialoglycoproteins on the surfaces of leukocytes or endothelial cells. SDS-PAGE analysis of immunoprecipitations performed with specific monoclonal antibodies on lysates of surface-^125 I-iodinated KG1a cells, a primitive myeloid/T-lymphois stem cell line Koeffler et al. 1977. Science 200, have shown that the O-sialoglycoprotein cell surface antigens CD34 Civin et al. 1989. Leucocyte Typing IV, Oxford Univ. Press. CD43/leucosialin Killeen et al. 1987. EMBO J.; Pallant et al. 1989. PNAS, CD44/lyaluronic acid receptor Stamenkovic et al. 1989. Cell; Aruffo et al. 1990. Cell and CD45/leucocyte common antigen Thomas et al. 1989. Annu. REv. Immunol.; Pulido et al. 1989. J. Immunol. are all cleaved by the glycoprotease. Although the glycoprotease-sensitive structures contain some N-linked glycans they are all extensively glycosylated with O-linked carbohydrates. […]
# [4] = pH 7.4, read-out: Activity (% of enzyme activity in the absence of any inhibitor)
# P. haemolytica A1 glycoprotease, sequence (P36175 whole entry): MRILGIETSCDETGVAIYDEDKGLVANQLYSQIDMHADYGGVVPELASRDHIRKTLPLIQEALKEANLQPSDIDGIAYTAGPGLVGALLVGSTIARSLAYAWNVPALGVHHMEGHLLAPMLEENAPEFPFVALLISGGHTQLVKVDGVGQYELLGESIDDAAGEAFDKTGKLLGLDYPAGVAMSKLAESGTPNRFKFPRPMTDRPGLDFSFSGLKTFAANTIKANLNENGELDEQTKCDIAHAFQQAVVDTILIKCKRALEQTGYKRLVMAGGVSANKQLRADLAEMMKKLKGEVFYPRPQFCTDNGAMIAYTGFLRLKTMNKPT
# P. haemolytica A1 protease, sequence (P36175 whole entry, looked up): as the sequence (P36175 whole entry) above
compound,measurement,setting,value
bovine insulin chain A,Hydrolysis of protein by active enzyme fractions,[1],did not hydrolyze
[Fe+2] [Fe^2+],Restoration of protease activity by addition of divalent metal ion,[2],failed to restore
same,Increase of activity by addition of divalent metal ion,[2],failed to increase
cytochrome c,Hydrolysis of protein by active enzyme fractions,[1],did not hydrolyze
[Ca+2] [Ca^2+],Restoration of protease activity by addition of divalent metal ion,[2],failed to restore
same,Increase of activity by addition of divalent metal ion,[2],failed to increase
N[C@@H](CC(=O)O)C(=O)O [aspartate],Inhibition of the glycoprotease by anions and acidic amino acids,[2],Some inhibitions
"CC(C)C[C@H](NP(=O)(O)O[C@H]1O[C@@H](C)[C@H](O)[C@@H](O)[C@H]1O)C(=O)N[C@@H](Cc1c[nH]c2ccccc12)C(=O)O [Phosphoramidon, N-(β-L-rhamnopyranosyl-oxyhydroxyphosphinyl)-L-leucyl-L-tryptophan]",Inhibition of the glycoprotease (in words),[2]; concentration not given,without significant effect
same,inhibition at 900 µM,[2]; [4],95%
Cc1ccc(S(=O)(=O)NC(CCCCN)C(=O)CCl)cc1 (stereo not shown) [tosyl-lysl chloromethylketone],Inhibition of glycoprotease by conventional protease inhibitors,[2],No inhibition
O=C(O)c1cc[c]([Hg+])cc1.[OH-] [p-hydroxymercuribenzoate],Inhibition of glycoprotease by conventional protease inhibitors,[2],No inhibition
O=S(=O)(F)Cc1ccccc1 [phenylmethanesulfonyl-fluoride],Inhibition of glycoprotease by conventional protease inhibitors,[2],No inhibition
N[C@@H](CCC(=O)O)C(=O)O [glutamate],Inhibition of the glycoprotease by anions and acidic amino acids,[2],Some inhibitions
"c1cnc2c(c1)ccc1cccnc12 [1,10-phenanthroline]",Inhibition of the protease by prolonged treatment,[2]; prolonged treatment (24 h),inhibited
O=C1O[C@H]([C@@H](O)CO)C(O)=C1O [Ascorbate],inhibition at 11400 µM,[2]; [4],60%
O=C(O)c1cc[c]([Hg][Cl])cc1 [p-chloromercuribenzoate],Inhibition of glycoprotease by conventional protease inhibitors,[2],No inhibition
"CD44/lyaluronic acid receptor: O-sialoglycoprotein cell surface antigen, hyaluronate receptor",Cleavage of cell surface antigen by the glycoprotease,[3],cleaved
CD71/transferrin receptor: N-linked glycoprotein which lacks O-sialo-residues,Cleavage of cell surface antigen by the glycoprotease,[3],resistant
Cc1ccc(S(=O)(=O)NC(Cc2ccccc2)C(=O)CCl)cc1 (stereo not shown) [tosylphenylalanyl chloromethylketone],Inhibition of glycoprotease by conventional protease inhibitors,[2],No inhibition
[Zn+2] [Zn^2+],Restoration of protease activity by addition of divalent metal ion,[2],failed to restore
same,Increase of activity by addition of divalent metal ion,[2],failed to increase
insulin chain B,Hydrolysis of protein by active enzyme fractions,[1],did not hydrolyze
[Mg+2] [Mg^2+],Restoration of protease activity by addition of divalent metal ion,[2],failed to restore
same,Increase of activity by addition of divalent metal ion,[2],failed to increase
CCN1C(=O)C=CC1=O [N-ethylmaleimide],Inhibition of glycoprotease by conventional protease inhibitors,[2],No inhibition
